Patent US6664271B1, “Immunopotentiator agents” (Eli Lilly and Company, priority 1999, dated 2003)

Tested on: chicken leukocytes
Experiment: cells
Assay type: cell-based
Settings: for minimal effective concentration: Gallus gallus, Leukocyte, read-out: MSC (Minimum Stimulatory Concentration)
Description: Various compounds of Formula I were evaluated for in vitro T-lymphocyte blastogenic activity with chicken leukocytes according to the steps described in the following procedure:
(a) Exsanguination step. The leukocytes were obtained from 3-6 week old Hubbard/Peterson broiler chickens. Initially, the chickens were rendered unconscious in a CO2 chamber. The chickens were then exsanguinated via cardiac puncture. In the exsanguination procedure, a syringe was connected to a needle, and the needle was inserted into the area at the base of the neck under the “V” formed by the breast and sternum. After the needle was properly inserted, continuous vacuum was applied to a syringe (connected to the needle) by pulling back on the plunger. It is important to promptly carry out this withdrawal action, because there is only a 10-15 seconds time period after the blood has starting flowing into the syringe before the blood coagulates, and becomes unusable. As soon as the syringe is full (or prior to complete filling if too much time has elapsed such that the blood begins to coagulate), the whole uncoagulated blood is transferred to a tube having the anticoagulant EDTA therein. The tube is then rotated to mix the whole blood and the EDTA. Alternatively, the whole blood can be withdrawn directly into a vacuum container already having EDTA therein, rather than into a syringe.
(b) Leukocyte isolation step. Numerous methods for isolating leukocytes from (uncoagulated) whole blood are known in the art. In a preferred method, the sterile whole blood was combined with methylcellulose (1.5:1). Any blood containing clots was discarded. The mixture was centrifuged at 30×g for ten minutes (300 rpm on Beckman GS-6R centrifuge). The top layer (leukocytes in supernatant) was decanted into a sterile 50 ml conical tube, while taking care to prevent contamination of the sample by red blood cells. The decanted layer was then centrifuged at 200×g for ten minutes (1500 rpm on the Beckman GS-6R centrifuge). The supernatant liquid was discarded, and the resulting cell “pellet” was retained.
The cells were then washed in a solution containing 10 ml PBS (phosphate buffered saline) and Gentamycin (gentamicin sulfate) at a concentration of 50 μg/ml. This solution was centrifuged at 100×g (1000 rpm on the Beckman centrifuge) for five minutes, and the supernatant liquid was discarded. The washing step (including the centrifuging at 100×g) was repeated to ensure complete removal of the methylcellulose. The use of media such as DMEM ([…]) was avoided in the washing steps, since such media may cause agglutination of the white blood cells. Finally, the cells were then suspended in an appropriate media, such as RPMI 1640 tissue cell culture medium, supplemented with phenol red, NaHCO3, and L-Glutamide. Supplemented RPMI 1640 is available from Sigma-Aldrich Chemical Co.
(c) Cell counting and cell viability step. The cells were counted and checked for viability using the Trypan Blue method of exclusion. 0.1 ml of the cell suspension was placed in a 4-5 ml small culture tube along with 0.7 ml HBSS (Hank's Buffered Saline Solution), available from Sigma-Aldrich, and 0.2 ml of a 0.4% solution of aqueous Trypan Blue stain, available from GIBCO BRL, of Grand Island, N.Y. The components were mixed thoroughly but gently, and allowed to sit for 5 minutes (no longer than 15 minutes). The components should not be exposed to the stain for extended periods of time, because such extended exposure may permit viable cells, as well as non-viable cells, to take up dye.
A cover slip was placed on a Bright Line hemacytometer, available from Howser Scientific, and 10 μl of the mixture from the tube was transferred to each chamber. Non-viable cells appear blue under a microscope. The viable cells in one of the 16-square corners of the hemacytometer were then counted. […]

[1] = chicken leukocytes, read at 72 hours
[2] = Hubbard/Peterson broiler, chicken, 72 h

## CCC(=O)OC1CCCN(C(=O)Cc2cccs2)C1 (centres unmarked) [Example 46, 1-(2-Thiopheneacetyl)-3-(O-propionyl)piperidine]
[1]
  MSC (Minimum Stimulatory Concentration): 1 µg/mL
  MTC (Maximum Tolerable Concentration prior to causing cytotoxicity): 10 µg/mL

## CCOC(=O)[C@H]1CCCN(C(=O)NCc2ccccc2)C1 [Example 48, (S)-Ethyl 1-(N-Benzylurea)-3-piperidinecarboxylate]
[1]
  MSC (Minimum Stimulatory Concentration): 10 µg/mL

## O=C(O)[C@H]1CCCN(C(=O)c2ccccc2)C1 [Example 50, (S)-1-Benzoyl-3-piperidinecarboxylic Acid]
[1]
  minimal effective concentration: 1 µg/mL
[2]
  MTC (Maximum Tolerable Concentration prior to causing cytotoxicity): 10 µg/mL

## CCOC(=O)C1CCCN(C(=O)OCc2ccccc2)C1 (centres unmarked) [Example 4, Ethyl 1-Benzyloxycarbonyl-3-piperidinecarboxylate]
[1]
  minimal effective concentration: 1 µg/mL
[2]
  MTC (Maximum Tolerable Concentration prior to causing cytotoxicity): 10 µg/mL

## CCOC(=O)CC1CCCN(C(=O)Cc2cccs2)C1 (centres unmarked) [Example 27, Ethyl 1-(2-Thiopheneacetyl)-3-piperidinylacetate]
[1]
  minimal effective concentration: 1 µg/mL
[2]
  MTC (Maximum Tolerable Concentration prior to causing cytotoxicity): 1 µg/mL

## CCOC(=O)C1CCCN(C(=O)c2ccsc2)C1 (centres unmarked) [Example 2, Ethyl 1-(3-thiophenecarbonyl)-3-piperidinecarboxylate]
[1]
  minimal effective concentration: 1 µg/mL
[2]
  MTC (Maximum Tolerable Concentration prior to causing cytotoxicity): 1 µg/mL

## CCOC(=O)C1(C)CCCN(C(=O)c2ccccc2)C1 (centres unmarked) [Example 39, Ethyl 1-Benzoyl-3-methyl-3-piperidinecarboxylate]
[1]
  minimal effective concentration: 1 µg/mL
[2]
  MTC (Maximum Tolerable Concentration prior to causing cytotoxicity): 1 µg/mL

## CNC(=O)N1C2CCC1C(C(=O)OC)C(=O)C2 (centres unmarked) [Example 40, 8-[(Methylamino)carbonyl]-3-oxo-8-azabicyclo[3.2.1]octane-2-carboxylic Acid, Methyl Ester]
[1]
  minimal effective concentration: 0.01 µg/mL
  MTC (Maximum Tolerable Concentration prior to causing cytotoxicity): 10 µg/mL

## CCCCCCCCNC(=O)C1CCCN(C(=O)c2ccccc2)C1 (centres unmarked) [Example 18, N-(n-Octyl) 1-Benzoyl-3-piperidinecarboxamide]
[1]
  minimal effective concentration: 0.01 µg/mL
[2]
  MTC (Maximum Tolerable Concentration prior to causing cytotoxicity): 0.1 µg/mL

## CCNC(=O)C1CCCN(C(=O)c2ccccc2)C1 (centres unmarked) [Example 17, N-Ethyl 1-Benzoyl-3-piperidinecarboxamide]
[1]
  minimal effective concentration: 1 µg/mL
[2]
  MTC (Maximum Tolerable Concentration prior to causing cytotoxicity): 10 µg/mL

## CN(C)CCNC(=O)C1CCCN(C(=O)Cc2cccs2)C1 (centres unmarked) [Example 25, 2-Dimethylaminoethyl 1-(2-thiopheneacetyl)-3-piperidinecarboxamide]
[1]
  minimal effective concentration: 0.1 µg/mL
[2]
  MTC (Maximum Tolerable Concentration prior to causing cytotoxicity): 1 µg/mL

## CCOC(=O)[C@H]1CCCN(C(=O)NC)C1 [Example 49, (S)-Ethyl 1-(N-Methylurea)-3-piperidinecarboxylate]
[1]
  MSC (Minimum Stimulatory Concentration): 1 µg/mL
  MTC (Maximum Tolerable Concentration prior to causing cytotoxicity): 10 µg/mL

## CCOC(=O)C1CCCN(C(=O)c2ccccc2)C1 (centres unmarked) [Example 1, Ethyl 1-Benzoyl-3-piperidinecarboxylate]
[1]
  minimal effective concentration: 0.1 µg/mL
[2]
  MTC (Maximum Tolerable Concentration prior to causing cytotoxicity): 10 µg/mL

## CS(=O)(=O)OC1CCCN(C(=O)Cc2cccs2)C1 (centres unmarked) [Example 44, 1-(2-Thiopheneacetyl)-3-(O-methanesulfonyl)piperidine]
[1]
  MSC (Minimum Stimulatory Concentration): 1 µg/mL
  MTC (Maximum Tolerable Concentration prior to causing cytotoxicity): 10 µg/mL

## COC(=O)[C@H]1CCCN(C(=O)c2ccccc2)C1 [Example 52, (S)-Methyl 1-Benzoyl-3-piperidinecarboxylate]
[1]
  minimal effective concentration: 0.1 µg/mL
[2]
  MTC (Maximum Tolerable Concentration prior to causing cytotoxicity): 10 µg/mL

## CCOC(=O)C1CCCN(C(=O)c2ccc(F)cc2)C1 (centres unmarked) [Example 7, Ethyl 1-(4-Fluorobenzoyl)-3-piperidinecarboxylate]
[1]
  minimal effective concentration: 0.01 µg/mL
[2]
  MTC (Maximum Tolerable Concentration prior to causing cytotoxicity): 10 µg/mL

## CCOC(=O)C1CCCN(C(=O)c2cccs2)C1 (centres unmarked) [Example 8, Ethyl (2-Thiophenecarbonyl)-3-piperidinecarboxylate]
[1]
  MSC (Minimum Stimulatory Concentration): 0.1 µg/mL

## CCOC(=O)C1CCC[N+](C)(Cc2ccccc2)C1.[I-] (centres unmarked) [Example 35, Ethyl 1-Benzyl-3-piperidinecarboxylate 1-Methiodide]
[1]
  MSC (Minimum Stimulatory Concentration): 10 µg/mL

## CCOC(=O)C1CCC(C)N(C(=O)Cc2cccs2)C1 (centres unmarked) [Example 33, Ethyl 1-(2-Thiopheneacetyl)-6-methyl-3-piperidinecarboxylate]
[1]
  minimal effective concentration: 0.1 µg/mL
[2]
  MTC (Maximum Tolerable Concentration prior to causing cytotoxicity): 10 µg/mL

## O=C[C@H]1CCCN(C(=O)Cc2cccs2)C1 [Example 63, (S)-1-(2-Thiopheneacetyl)-3-piperidinecarboxaldehyde]
[1]
  minimal effective concentration: 1 µg/mL
[2]
  MTC (Maximum Tolerable Concentration prior to causing cytotoxicity): 10 µg/mL

## CCCCOC(=O)C1CCCN(C(=O)c2ccccc2)C1 (centres unmarked) [Example 13, n-Butyl 1-Benzoyl-3-piperidinecarboxylate]
[1]
  minimal effective concentration: 0.01 µg/mL
[2]
  MTC (Maximum Tolerable Concentration prior to causing cytotoxicity): 1 µg/mL

## CCOC(=O)C1CN(C(=O)c2ccccc2)CCC1=O (centres unmarked) [Example 3, Ethyl 1-Benzoyl-4-oxo-3-piperidinecarboxylate]
[1]
  minimal effective concentration: 0.01 µg/mL
[2]
  MTC (Maximum Tolerable Concentration prior to causing cytotoxicity): 1 µg/mL

## CCOC(=O)C1CCCN(C(=O)CCc2cccs2)C1 (centres unmarked) [Example 23, Ethyl 1-(3-(2-Thienyl)propionyl)3-piperidinecarboxylate]
[1]
  minimal effective concentration: 0.1 µg/mL
[2]
  MTC (Maximum Tolerable Concentration prior to causing cytotoxicity): 1 µg/mL

## CCOC(=O)[C@H]1CCCN(C(=O)C(C)c2ccccc2)C1 (mixture of isomers) [Example 58, (S)±Ethyl 1-(2-Phenylpropionyl)-3-piperidinecarboxylate]
[1]
  MSC (Minimum Stimulatory Concentration): 1 µg/mL

## O=C(Cc1cccs1)N1CCCC(O)C1 (centres unmarked) [Example 41, 1-(2-Thiopheneacetyl)-3-hydroxypiperidine]
[1]
  minimal effective concentration: 10 µg/mL
[2]
  MTC (Maximum Tolerable Concentration prior to causing cytotoxicity): 100 µg/mL

## O=C(O)[C@H]1CCCN(C(=O)Cc2cccs2)C1 [Example 37, (S)-1-(2-Thiopheneacetyl)-3-piperidine Carboxylic Acid]
[1]
  minimal effective concentration: 10 µg/mL
[2]
  MTC (Maximum Tolerable Concentration prior to causing cytotoxicity): 1000 µg/mL

## (S)-Ethyl 1-(2-Thiazyl)-3-piperidinecarboxylate 1-methiodide [Example 73]
[1]
  MSC (Minimum Stimulatory Concentration): 1 µg/mL

## CCOC(=O)C1CCCN(C(=O)CCc2ccccc2)C1 (centres unmarked) [Example 43, Ethyl 1-(1-Phenylpropionyl)-3-piperidinecarboxylate]
[1]
  MSC (Minimum Stimulatory Concentration): 1 µg/mL

## CCOC(=O)C1CC(C)CN(C(=O)Cc2cccs2)C1 (centres unmarked) [Example 57, Ethyl 1-(2-Thiopheneacetyl)-5-methyl-3-piperidinecarboxylate]
[1]
  minimal effective concentration: 10 µg/mL
[2]
  MTC (Maximum Tolerable Concentration prior to causing cytotoxicity): 10 µg/mL

## CCOC(=O)C1CCCN(C(=O)Cc2ccccc2)C1 (centres unmarked) [Example 6, Ethyl 1-Phenylacetyl-3-piperidinecarboxylate]
[1]
  MSC (Minimum Stimulatory Concentration): 0.1 µg/mL
  MTC (Maximum Tolerable Concentration prior to causing cytotoxicity): 1 µg/mL

## N#C[C@H]1CCCN(C(=O)Cc2cccs2)C1 [Example 64, (S)-1-(2-Thiopheneacetyl)-3-piperidinonitrile]
[1]
  minimal effective concentration: 1 µg/mL
[2]
  MTC (Maximum Tolerable Concentration prior to causing cytotoxicity): 10 µg/mL

## O=C(Cc1cccs1)N1CCC[C@H](CO)C1 [Example 59]
[1]
  MSC (Minimum Stimulatory Concentration): 10 µg/mL
  MTC (Maximum Tolerable Concentration prior to causing cytotoxicity): 100 µg/mL

## N.O=C(O)[C@H]1CCCN(C(=O)Cc2cccs2)C1 [Example 42, (S)-1-(2-Thiopheneacetyl)-3-piperidinecarboxylic Acid Ammonium Salt]
[1]
  minimal effective concentration: 1 µg/mL
  MTC (Maximum Tolerable Concentration prior to causing cytotoxicity): 10 µg/mL

## CCOC(=O)[C@H]1CCCN(CCCc2cccs2)C1 [Example 54, (S)-Ethyl 1-(2-Thienylpropyl)-3-piperidinecarboxylate]
[1]
  minimal effective concentration: 1 µg/mL
[2]
  MTC (Maximum Tolerable Concentration prior to causing cytotoxicity): 10 µg/mL
